# Measured values: patent US8357694B2, “Substituted 5,6-dihydro-6-phenylbenzo[F]isoquinolin-2-amine compounds” (ArQule, Inc., priority 2008, dated 2013)
# Where a name gives a salt, the structure may show the parent alone.
# Test system: not given
# Experiment: not given
# Details: not given
row,melting point,SMILES
1,60 to 62 °C,"Fc1ccc(C2Cc3cnc(NCCCN4CCCCC4)nc3-c3ccccc32)cc1 (stereo not drawn) [Example 16, 6-(4-fluorophenyl)-N-(3-(piperidin-1-yl)propyl)-5,6-dihydrobenzo[h]quinazolin-2-amine]"
2,131 to 132 °C,"COCCNCCc1cc(Nc2ncc3c(n2)-c2ccccc2[C@H](c2ccccc2F)C3)ccc1F (as salt: hydrochloride) [Example 173, (R)—N-(4-fluoro-3-(2-(2-methoxyethylamino)ethyl)phenyl)-6-(2-fluorophenyl)-5,6-dihydrobenzo[h]quinazolin-2-amine hydrochloride salt]"
3,248 to 250 °C,"COCCN1CCN(CCc2ccc(Nc3ncc4c(n3)-c3ccccc3[C@H](c3ccc(Cl)c(Cl)c3)C4)cc2)CC1 (as salt: hydrochloride) [Example 115, (S)-6-(3,4-dichlorophenyl)-N-(4-(2-(4-(2-methoxyethyl)piperazin-1-yl)ethyl)phenyl)-5,6-dihydrobenzo[h]quinazolin-2-amine hydrochloride]"
4,113 to 115 °C,"Brc1cccc(C2Cc3cnc(Nc4ccc(CCN5CCN(c6ccccc6)CC5)cc4)nc3-c3ccccc32)c1 (stereo not drawn) [Example 43, 6-(3-bromophenyl)-N-(4-(2-(4-phenylpiperazin-1-yl)ethyl)phenyl)-5,6-dihydrobenzo[h]quinazolin-2-amine]"
5,86 to 88 °C,"Brc1cccc(C2Cc3cnc(Nc4ccc(CCN5CCOCC5)cc4)nc3-c3ccccc32)c1 (stereo not drawn) [Example 31, 6-(3-bromophenyl)-N-(4-(2-morpholinoethyl)phenyl)-5,6-dihydrobenzo[h]quinazolin-2-amine]"
6,157 to 158 °C,Clc1ccc([C@H]2Cc3cnc(Nc4ccc(CCN5CCCCC5)cc4)nc3-c3ccccc32)cc1Cl
7,85 to 87 °C,CC(C)(C)OC(=O)N1CCC[C@@H](Nc2ncc3c(n2)-c2ccccc2[C@H](c2ccc(Cl)c(Cl)c2)C3)C1
8,145 to 150 °C,"CCCCN(C)CCc1ccc(Nc2ncc3c(n2)-c2ccccc2[C@H](c2ccc(F)c(F)c2)C3)cc1 (as salt: hydrochloride) [Example 96, (S)—N-(4-(2-(butyl(methyl)amino)ethyl)phenyl)-6-(3,4-difluorophenyl)-5,6-dihydrobenzo[h]quinazolin-2-amine hydrochloride salt]"
9,214 to 218 °C,"Fc1ccc(C2Cc3cnc(Nc4ccc(CCN5CCCCC5)cc4)nc3-c3ccccc32)cc1F (stereo not drawn) (as salt: hydrochloride) [Example 57, 6-(3,4-difluorophenyl)-N-(4-(2-(piperidin-1-yl)ethyl)phenyl)-5,6-dihydrobenzo[h]quinazolin-2-amine]"
10,180 to 181 °C,"Clc1ccc(C2Cc3cnc(Nc4ccc(CCN5CCOCC5)cc4)nc3-c3ccccc32)cc1Cl (stereo not drawn) [Example 50, 6-(3,4-dichlorophenyl)-N-(4-(2-morpholinoethyl)phenyl)-5,6-dihydrobenzo[h]quinazolin-2-amine]"
11,189 to 193 °C,"Nc1cc2c(cn1)CC(c1ccc(Cl)cc1Cl)c1ccccc1-2 (stereo not drawn) [Example 156, 6-(2,4-dichlorophenyl)-5,6-dihydrobenzo[f]isoquinolin-2-amine]"
12,59 to 62 °C,"CN(C)CCCNc1ncc2c(n1)-c1ccccc1[C@@H](c1ccc(Cl)c(Cl)c1)C2 [Example 12, (R)—N^1-(6-(3,4-dichlorophenyl)-5,6-dihydrobenzo[h]quinazolin-2-yl)-N^3,N^3-dimethylpropane-1,3-diamine]"
13,173 to 178 °C,"COCCN1CCN(Cc2cccc(Nc3ncc4c(n3)-c3ccccc3[C@H](c3ccccc3F)C4)c2)CC1 (as salt: hydrochloride) [Example 179, (R)-6-(2-fluorophenyl)-N-(3-((4-(2-methoxyethyl)piperazin-1-yl)methyl)phenyl)-5,6-dihydrobenzo[h]quinazolin-2-amine hydrochloride]"
14,158 to 163 °C,"COCCNCc1cccc(Nc2ncc3c(n2)-c2ccccc2[C@H](c2ccccc2F)C3)c1 (as salt: hydrochloride) [Example 178, (R)-6-(2-fluorophenyl)-N-(3-((2-methoxyethylamino)methyl)phenyl)-5,6-dihydrobenzo[h]quinazolin-2-amine hydrochloride]"
15,193 to 199 °C,"Fc1ccccc1[C@@H]1Cc2cnc(Nc3cccc(CCN4CCNCC4)c3)nc2-c2ccccc21 (as salt: hydrochloride) [Example 160, (R)-6-(2-fluorophenyl)-N-(3-(2-(piperazin-1-yl)ethyl)phenyl)-5,6-dihydrobenzo[h]quinazolin-2-amine hydrochloride]"
16,94 to 96 °C,OCCc1ccc(Nc2ncc3c(n2)-c2ccccc2C(c2ccc(Cl)c(Cl)c2)C3)cc1 (stereo not drawn)
17,165 to 169 °C,"Clc1ccc([C@@H]2Cc3cnc(Nc4cccc(CCN5CCCCC5)c4)nc3-c3ccccc32)cc1Cl (as salt: hydrochloride) [Example 167, (S)-6-(3,4-dichlorophenyl)-N-(3-(2-(piperidin-1-yl)ethyl)phenyl)-5,6-dihydrobenzo[h]quinazolin-2-amine hydrochloride]"
18,140 to 145 °C,"CCCCN(C)CCc1ccc(Nc2ncc3c(n2)-c2ccccc2[C@@H](c2ccc(Br)cc2)C3)cc1 (as salt: hydrochloride) [Example 107, (R)-6-(4-bromophenyl)-N-(4-(2-(butyl(methyl)amino)ethyl)phenyl)-5,6-dihydrobenzo[h]quinazolin-2-amine hydrochloride salt]"
19,94 to 96 °C,"CC(C)(C)OC(=O)N1CCC(Nc2ncc3c(n2)-c2ccccc2C(c2ccc(Cl)c(Cl)c2)C3)CC1 (stereo not drawn) [Example 19, tert-butyl 4-(6-(3,4-dichlorophenyl)-5,6-dihydrobenzo[h]quinazolin-2-ylamino)piperidine-1-carboxylate]"
20,68 to 70 °C,"CN(C)CCN(CCc1ccc(Nc2ncc3c(n2)-c2ccccc2C(c2cccc(Br)c2)C3)cc1)Cc1ccccc1 (stereo not drawn) [Example 38, N^1-benzyl-N-1-(4-(6-(3-bromophenyl)-5,6-dihydrobenzo[h]quinazolin-2-ylamino)phenethyl)-N^2,N^2-dimethylethane-1,2-diamine]"
21,159 °C,"Clc1ccc([C@@H]2Cc3cnc(Nc4ccccc4)nc3-c3ccccc32)cc1Cl [Example 15, (S)-6-(3,4-dichlorophenyl)-N-phenyl-5,6-dihydrobenzo[h]quinazolin-2-amine]"
22,265 to 270 °C,"COCCN1CCN(CCc2ccc(Nc3ncc4c(n3)-c3ccccc3[C@H](c3ccc(Br)cc3)C4)cc2)CC1 (as salt: hydrochloride) [Example 97, (S)-6-(4-bromophenyl)-N-(4-(2-(4-(2-methoxyethyl)piperazin-1-yl)ethyl)phenyl)-5,6-dihydrobenzo[h]quinazolin-2-amine hydrochloride salt]"
23,263 to 265 °C,"COCCN1CCN(CCc2ccc(Nc3ncc4c(n3)-c3ccccc3[C@H](c3cccc(Br)c3)C4)cc2)CC1 (as salt: hydrochloride) [Example 77, (S)-6-(3-bromophenyl)-N-(4-(2-(4-(2-methoxyethyl)piperazin-1-yl)ethyl)phenyl)-5,6-dihydrobenzo[h]quinazolin-2-amine hydrochloride]"
24,159 to 160 °C,Nc1ncc2c(n1)-c1ccccc1C(c1ccc(Cl)c(Cl)c1)C2 (stereo not drawn)

# Test system: SNU-16
# Experiment: MTS assay, SNU-16
# Format: cell-based
# Details: Homo sapiens, SNU-16, SNU-16; read-out: MTS cell kill data (IC50-μM) SNU-16
# Description: Cells were maintained at 37° C., 5% CO2 in DMEM media supplemented with 1% fetal bovine serum, penicillin/streptomycin and fungizone (Invitrogen). Cells were seeded into 96-well tissue culture plates at 3000 per well and cultured at 37° C. for 18 hours. Test compounds were dissolved and diluted to 300× in DMSO then diluted 1:40 in DMEM.
row,SMILES,IC50
1,"CN(C)CCc1ccc(Nc2ncc3c(n2)-c2ccccc2[C@H](c2ccc(F)c(F)c2)C3)cc1 [Example 87, (S)-6-(3,4-difluorophenyl)-N-(4-(2-(dimethylamino)ethyl)phenyl)-5,6-dihydrobenzo[h]quinazolin-2-amine hydrochloride]",7.78 µM
2,"COCCN1CCN(CCc2ccc(Nc3ncc4c(n3)-c3ccccc3[C@H](c3ccc(Br)cc3)C4)cc2)CC1 [Example 97, (S)-6-(4-bromophenyl)-N-(4-(2-(4-(2-methoxyethyl)piperazin-1-yl)ethyl)phenyl)-5,6-dihydrobenzo[h]quinazolin-2-amine hydrochloride salt]",4.2 µM
3,"COCCN1CCN(CCc2ccc(Nc3ncc4c(n3)-c3ccccc3[C@@H](c3ccc(F)c(F)c3)C4)cc2)CC1 [Example 90, (R)-6-(3,4-difluorophenyl)-N-(4-(2-(4-(2-methoxyethyl)piperazin-1-yl)ethyl)phenyl)-5,6-dihydrobenzo[h]quinazolin-2-amine hydrochloride]",14.6 µM
4,"CN(CCc1ccc(Nc2ncc3c(n2)-c2ccccc2[C@H](c2ccc(F)c(F)c2)C3)cc1)C1CCCCC1 [Example 85, (S)-N-(4-(2-(cyclohexyl(methyl)amino)ethyl)phenyl)-6-(3,4-difluorophenyl)-5,6-dihydrobenzo[h]quinazolin-2-amine hydrochloride]",3.88 µM
5,"CN(CCc1ccc(Nc2ncc3c(n2)-c2ccccc2[C@H](c2ccc(Cl)c(Cl)c2)C3)cc1)C1CCCCC1 [Example 106, (S)-N-(4-(2-(cyclohexyl(methyl)amino)ethyl)phenyl)-6-(3,4-dichlorophenyl)-5,6-dihydrobenzo[h]quinazolin-2-amine hydrochloride salt]",3.05 µM
6,"Brc1cccc([C@@H]2Cc3cnc(Nc4ccc(CCN5CCCCC5)cc4)nc3-c3ccccc32)c1 [Example 78, (S)-6-(3-bromophenyl)-N-(4-(2-(piperidin-1-yl)ethyl)phenyl)-5,6-dihydrobenzo[h]quinazolin-2-amine hydrochloride]",4.85 µM
7,"Fc1ccc([C@H]2Cc3cnc(Nc4ccc(CCN5CCCCC5)cc4)nc3-c3ccccc32)cc1F [Example 91, (R)-6-(3,4-difluorophenyl)-N-(4-(2-(piperidin-1-yl)ethyl)phenyl)-5,6-dihydrobenzo[h]quinazolin-2-amine hydrochloride]",6.32 µM
8,"Clc1ccc([C@@H]2Cc3cnc(Nc4cccc(CCN5CCCCC5)c4)nc3-c3ccccc32)cc1Cl [Example 167, (S)-6-(3,4-dichlorophenyl)-N-(3-(2-(piperidin-1-yl)ethyl)phenyl)-5,6-dihydrobenzo[h]quinazolin-2-amine hydrochloride]",4.21 µM
9,"CN1CCN(CCc2ccc(Nc3ncc4c(n3)-c3ccccc3[C@H](c3ccc(F)c(F)c3)C4)cc2)CC1 [Example 88, (S)-6-(3,4-difluorophenyl)-N-(4-(2-(4-methylpiperazin-1-yl)ethyl)phenyl)-5,6-dihydrobenzo[h]quinazolin-2-amine hydrochloride]",9.86 µM
